Patent publication US6913930B2, “Analytical method and apparatus therefor involving continuous titration” (Glaxo Wellcome Inc., priority 1997, dated 2005)
“And” between values parts separate entries of the source, which are not always exact repeats. Equal entries are not always repeated. Marks after values point to notes of the source that are not given here. One block for each compound: values may come before it.

Legend:
[1] = physchem
[2] = pKa by continuous titration, linear pH gradient, apparatus of FIG. 2, 1st derivative peak time read from standards calibration curve; type: physicochemical; conditions: from standards calibration curve via time to peak maximum of 1st derivative, gradient over 4 minutes, FIG. 2 apparatus
Protocol: The following pKa determination experiment was performed on this apparatus.
The two buffers have a common component to which an acidic component is added to form buffer A and a basic component is added to form buffer B. The buffers were made up as follows:
The sample solution was kept constant at 20%. The HP1050 pump was used again with buffer B introduced via channel B and buffer A via channel C. The flow rate of the test mixture stream from the mixer to the detector was 1 cm^3 min^−1.
The calibration results are set out below: Time to peak maximum is from the start of the instrument cycle (when the autosampler first goes into a new sample container).

[3] = physchem; remark: listed apart in the source
[4] = pKa by continuous titration, apparatus of FIG. 8, optimised buffers, TFA or 1st derivative data processing; conditions: for pKa (1st Deriv.): first derivative method
[5] = Albert & Serjeant, 1984; corrected for an ionic strength of 0.15 M; cited from earlier work
[6] = test solutes; potentiometric titration on Sirius PCA 101 instrument in 0.15 KCl
[7] = cited from earlier work
[8] = run with calibration curve pH=−0.022×time+12.66

Compound: Oc1ccc(Cl)cc1 [4-Cl phenol, 4-Chlorophenol]
- pKa [1]: 9.03 ± 0.03
- pKa ([2]; buffered linear pH gradient (apparatus of FIG. 2), read-out: pKa Derived): 9.14
- pKa Derived [2]: 9.13
- pKa ([3]; 0.15 KCl solution): 9.14
- pKa (1st Deriv.) ([4]; run with calibration curve pH=−0.021×time+12.49): 9.16 ± 0.08
- pKa (1st Deriv.) [4, 8]: 9.25 ± 0.07
- pKa (TFA) ([4]; run with calibration curve pH=−0.022×time+12.66, target factor analysis): 9.04 ± 0.01

- pKa [1]: 5.73 ± 0.08
- pKa (1st Deriv.) [4, 8]: 5.81 ± 0.40
Compound: NCCCn1ccnc1 [1-(3-Aminopropyl)imidazole, 1-(3-Aminopropyl) imidazole]

- pKa [1]: 9.23 ± 0.1
Compound: NCc1ccccc1 [Benzylamine]
- pKa (lit. data) [5]: 9.34^a

Compound: NCCc1c[nH]c2ccccc12 [Tryptamine]
- pKa [1]: 9.67 ± 0.03
- pKa (1st Deriv.) [4, 8]: 10.05 ± 0.10

- pKa [1]: 10.09 ± 0.03
- pKa (1st Deriv.) [4, 8]: 10.03 ± 0.08
Compound: NCCc1c[nH]c2ccc(O)cc12 [Serotonin]
- pKa (lit. data) [5]: 9.80^a and 10.04^a

Compound: Oc1cccc(Cl)c1 [3-Cl phenol]
- pKa Derived [2]: 8.79 and 8.78
- Known pKa [6]: 8.81

- pKa [1]: 3.39 ± 0.08
Compound: Nc1cccc(C(=O)O)c1 [3-Aminobenzoic acid]

- pKa [1]: 4.57 ± 0.05
Compound: O=C(O)C/C=C/c1ccccc1 [Trans-styrylacetic acid]

Compound: N#Cc1ccc(O)cc1 [4-CN phenol]
- pKa Derived [2]: 7.62 and 7.58
- Known pKa [6]: 7.7

- pKa [1]: 8.84 ± 0.05
Compound: O=C1OC(c2ccc(O)cc2)(c2ccc(O)cc2)c2ccccc21 [Phenolphthalein]

Compound: NCCc1ccccc1 [Phenylethylamine]
- pKa [1]: 9.64 ± 0.07

- pKa [1]: 4.15 ± 0.01
Compound: O=C(O)/C=C/c1ccccc1 [Trans-cinnamic acid]
- pKa (lit. data) [5]: 4.20^b

Compound: O=C(O)Cc1ccccc1 [Phenylacetic acid]
- pKa [1]: 4.34 ± 0.01
- pKa (lit. data) [5]: 4.07^b

Compound: O=[N+]([O-])c1ccc(O)cc1 [4-NO2phenol, p-nitrophenol]
- pKa ([3]; 0.15 KCl solution): 6.89
- pKa (Standard Curve) ([7]; standards STD1, STD2 of Example 3): 6.869
- pKa (calibration standards) ([7]; standards for calibration curves of the FIG. 8 runs): 6.869

Compound: O=C(O)c1ccccc1C(=O)O [phthalate 1, potassium hydrogen phthalate]
- pKa [3]: 4.82

Compound: Oc1ccccc1Cl [2-Cl phenol]
- pKa Derived [2]: 8.15 and 8.16
- Known pKa [6]: 8.24

- pKa [1]: 7.96 ± 0.03
Compound: CC(C)NCC(O)c1ccc(NS(C)(=O)=O)cc1 (centres unmarked) [Sotalol]
